Where a name gives a salt, the structure may show the parent alone.
Experiments:
[1] = Solid-state stability (HPLC purity and crystal form by XRPD after storage); type: physicochemical; conditions: for Purity / Initial purity / HPLC purity after storage at 168 h / HPLC purity after storage at 336 h / HPLC purity after storage at 672 h: HPLC; for Initial purity: starting sample before storage; for HPLC purity after storage at 168 h / HPLC purity after storage at 336 h / HPLC purity after storage at 672 h: solid state, open
Experimental: About 10 mg of each solid form of the compound was weighed and added to the HPLC vial, respectively, the bottleneck was sealed with a sealing film, and 10 small holes were made on the film. The vial was placed in 25° C./60% RH and 40° C./75% RH environment for 4 weeks, samples were taken in the 1st week, the 2nd week and the 4th week respectively, the purity (by HPLC analysis) and crystal form (by X ray powder diffraction analysis) of the sample were investigated.

[2] = Hygroscopicity by dynamic moisture adsorption (DVS); type: physicochemical; conditions: 25° C./80% RH, 0% RH-95% RH adsorption curve
Experimental: Dynamic moisture adsorption (DVS) analysis: the instrument is a DVS Intrinsic produced by SMS company (Surface Measurement Systems); temperature, 25° C.; carrier gas, flow rate: nitrogen, 200 mL/min; mass change per unit time: 0.002%/min; relative humidity range: 0% RH-95% RH.
Dynamic moisture absorption (DVS) was used to test their hygroscopicity.

[3] = 25 °C/60% RH/open, 1 week, 10080 min
[4] = 25 °C/60% RH/open, 2 weeks, 20160 min
[5] = 25 °C/60% RH/open, 4 weeks, 40320 min
[6] = 40 °C/75% RH/open, 1 week, 10080 min
[7] = 40 °C/75% RH/open, 2 weeks, 20160 min
[8] = 40 °C/75% RH/open, 4 weeks, 40320 min
[9] = 25° C./60% RH and 40° C./75% RH, 4 weeks, result in words

Q: With `CNCc1ccc(NS(=O)(=O)c2ccsc2)c(-c2ccco2)c1` [Phosphate crystal form G, N-(2-(furan-2-yl)-4-((methylamino)methyl)phenyl)thiophene-3-sulfonamide] as the molecule, how does the Purity [1, 3] read?
A: The Purity was 98.11 area %.

Q: What about the Purity [1, 4] of the same molecule?
A: Its Purity is 98.09 area %.

Q: And the Purity [1, 5]?
A: The Purity was 98.04 area %.

Q: And the Purity [1, 6]?
A: The Purity was 98.11 area %.

Q: And the Purity [1, 7]?
A: Its Purity is 98.06 area %.

Q: And the Purity [1, 8]?
A: Its Purity is 98.01 area %.

Q: What about the Initial purity [1] of the same molecule?
A: The Initial purity was 98.11 area %.

Q: For `CNCc1ccc(NS(=O)(=O)c2ccsc2)c(-c2ccco2)c1` [Malonate crystal form K, N-(2-(furan-2-yl)-4-((methylamino)methyl)phenyl)thiophene-3-sulfonamide], which Purity [1, 3] is on record?
A: The Purity was 98.64 area %.

Q: What about the Purity [1, 4] of the same molecule?
A: Its Purity is 98.61 area %.

Q: And the Purity [1, 5]?
A: The Purity was 98.59 area %.

Q: And the Purity [1, 6]?
A: Its Purity is 98.64 area %.

Q: And the Purity [1, 7]?
A: The Purity was 98.58 area %.

Q: What about the Purity [1, 8] of the same molecule?
A: Its Purity is 98.46 area %.

Q: What about the Initial purity [1] of the same molecule?
A: The Initial purity was 98.64 area %.

Q: With `CNCc1ccc(NS(=O)(=O)c2ccsc2)c(-c2ccco2)c1` [Tartrate crystal form H, N-(2-(furan-2-yl)-4-((methylamino)methyl)phenyl)thiophene-3-sulfonamide] as the molecule, how does the Purity [1, 3] read?
A: Its Purity is 98.71 area %.

Q: What about the Purity [1, 4] of the same molecule?
A: The Purity was 98.62 area %.

Q: And the Purity [1, 5]?
A: The Purity was 98.6 area %.

Q: What about the Purity [1, 6] of the same molecule?
A: Its Purity is 98.7 area %.

Q: What about the Purity [1, 7] of the same molecule?
A: Its Purity is 98.6 area %.

Q: What about the Purity [1, 8] of the same molecule?
A: The Purity was 98.53 area %.

Q: What about the Initial purity [1] of the same molecule?
A: Its Initial purity is 98.71 area %.

Q: Which Purity [1, 3] does the source give for `CNCc1ccc(NS(=O)(=O)c2ccsc2)c(-c2ccco2)c1` [benzene sulfonate crystal form J, N-(2-(furan-2-yl)-4-((methylamino)methyl)-phenyl)thiophene-3-sulfonamide] here?
A: The Purity was 98.87 area %.

Q: And the Purity [1, 4]?
A: The Purity was 98.85 area %.

Q: What about the Purity [1, 5] of the same molecule?
A: The Purity was 98.82 area %.

Q: What about the Purity [1, 6] of the same molecule?
A: Its Purity is 98.87 area %.

Q: What about the Purity [1, 7] of the same molecule?
A: Its Purity is 98.82 area %.

Q: And the Purity [1, 8]?
A: The Purity was 98.79 area %.

Q: What about the Initial purity [1] of the same molecule?
A: The Initial purity was 98.87 area %.

Q: For `CNCc1ccc(NS(=O)(=O)c2ccsc2)c(-c2ccco2)c1` [malate crystal form F, N-(2-(furan-2-yl)-4-((methylamino)methyl)phenyl)thiophene-3-sulfonamide], which Purity [1, 3] is on record?
A: Its Purity is 98.72 area %.

Q: And the Purity [1, 4]?
A: Its Purity is 98.7 area %.

Q: What about the Purity [1, 5] of the same molecule?
A: Its Purity is 98.79 area %.

Q: And the Purity [1, 6]?
A: The Purity was 98.74 area %.

Q: And the Purity [1, 7]?
A: The Purity was 98.75 area %.

Q: What about the Purity [1, 8] of the same molecule?
A: Its Purity is 98.68 area %.

Q: And the Initial purity [1]?
A: The Initial purity was 98.72 area %.

Q: What about the “moisture adsorption value (moisture uptake)” value (from here on “moisture adsorption value”) [2] of the same molecule?
A: The value was 1.4%.

Q: For `CNCc1ccc(NS(=O)(=O)c2ccsc2)c(-c2ccco2)c1` [succinate crystal form E, N-(2-(furan-2-yl)-4-((methylamino)methyl)phenyl)thiophene-3-sulfonamide], which Purity [1, 3] is on record?
A: Its Purity is 98.92 area %.

Q: And the Purity [1, 4]?
A: Its Purity is 98.86 area %.

Q: And the Purity [1, 5]?
A: The Purity was 98.94 area %.

Q: And the Purity [1, 6]?
A: The Purity was 98.92 area %.

Q: What about the Purity [1, 7] of the same molecule?
A: The Purity was 98.72 area %.

Q: And the Purity [1, 8]?
A: Its Purity is 98.98 area %.

Q: What about the Initial purity [1] of the same molecule?
A: The Initial purity was 98.82 area %.

Q: And the “moisture adsorption value” value [2]?
A: Its value is 0.6%.

Q: With `CNCc1ccc(NS(=O)(=O)c2ccsc2)c(-c2ccco2)c1` [hydrochloride crystal form C, N-(2-(furan-2-yl)-4-((methylamino)methyl)phenyl)thiophene-3-sulfonamide] as the molecule, how does the Purity [1, 3] read?
A: Its Purity is 98.97 area %.

Q: What about the Purity [1, 4] of the same molecule?
A: The Purity was 98.92 area %.

Q: And the Purity [1, 5]?
A: Its Purity is 98.87 area %.

Q: What about the Purity [1, 6] of the same molecule?
A: The Purity was 99.02 area %.

Q: What about the Purity [1, 7] of the same molecule?
A: Its Purity is 98.9 area %.

Q: And the Purity [1, 8]?
A: Its Purity is 99 area %.

Q: And the Initial purity [1]?
A: The Initial purity was 99.02 area %.

Q: What about the “moisture adsorption value” value [2] of the same molecule?
A: The value was 5.5%.

Q: Which Purity [1, 3] does the source give for `CNCc1ccc(NS(=O)(=O)c2ccsc2)c(-c2ccco2)c1` [Pyroglutamate crystal form I, N-(2-(furan-2-yl)-4-((methylamino)methyl)phenyl)thiophene-3-sulfonamide] here?
A: Its Purity is 98.61 area %.

Q: What about the Purity [1, 4] of the same molecule?
A: The Purity was 98.58 area %.

Q: What about the Purity [1, 5] of the same molecule?
A: The Purity was 98.57 area %.

Q: What about the Purity [1, 6] of the same molecule?
A: Its Purity is 98.61 area %.

Q: What about the Purity [1, 7] of the same molecule?
A: Its Purity is 98.54 area %.

Q: And the Purity [1, 8]?
A: Its Purity is 98.32 area %.

Q: What about the Initial purity [1] of the same molecule?
A: Its Initial purity is 98.61 area %.

Q: Which Purity [1, 7] does the source give for `CNCc1ccc(NS(=O)(=O)c2ccsc2)c(-c2ccco2)c1` [fumarate crystal form B, N-(2-(furan-2-yl)-4-((methylamino)methyl)phenyl)thiophene-3-sulfonamide] here?
A: The Purity was 98.5 area %.

Q: And the Purity [1, 8]?
A: The Purity was 98.52 area %.

Q: What about the Initial purity [1] of the same molecule?
A: Its Initial purity is 98.55 area %.

Q: And the HPLC purity after storage at 168 h ([1]; 25 °C/60% RH/open, 1 week)?
A: Its HPLC purity after storage at 168 h is 98.5%.

Q: What about the HPLC purity after storage at 336 h ([1]; 25 °C/60% RH/open, 2 weeks) of the same molecule?
A: Its HPLC purity after storage at 336 h is 98.5%.

Q: And the HPLC purity after storage at 672 h ([1]; 25 °C/60% RH/open, 4 weeks)?
A: The HPLC purity after storage at 672 h was 98.6%.

Q: And the HPLC purity after storage at 168 h ([1]; 40 °C/75% RH/open, 1 week)?
A: The HPLC purity after storage at 168 h was 98.4%.

Q: And the “moisture adsorption value” value [2]?
A: The value was 0.2%.

Q: What does the source list for `CNCc1ccc(NS(=O)(=O)c2ccsc2)c(-c2ccco2)c1` [sulfate crystal form D, N-(2-(furan-2-yl)-4-((methylamino)methyl)phenyl)thiophene-3-sulfonamide]?
A: Purity [1, 3]: 98.74 area %; Purity [1, 4]: 98.65 area %; Purity [1, 5]: 98.78 area %; Purity [1, 6]: 98.76 area %; Purity [1, 7]: 98.65 area %; Purity [1, 8]: 98.78 area %; Initial purity [1]: 98.77 area %; moisture adsorption value (moisture uptake) [2]: 1.3%

Q: With `CNCc1ccc(NS(=O)(=O)c2ccsc2)c(-c2ccco2)c1` [free crystal form A, N-(2-(furan-2-yl)-4-((methylamino)methyl)phenyl)thiophene-3-sulfonamide] as the molecule, how does the “HPLC purity change on storage” value [1, 9] read?
A: The value was “did not decrease significantly”.

Q: And the “crystalline phase change on storage (XRPD)” value [1, 9]?
A: The value was “no detectable crystalline phase changes”.

Q: And the Purity [1, 3]?
A: The Purity was 98.18 area %.

Q: What about the Purity [1, 4] of the same molecule?
A: Its Purity is 98.14 area %.

Q: What about the Purity [1, 5] of the same molecule?
A: The Purity was 98.1 area %.

Q: And the Purity [1, 6]?
A: Its Purity is 98.19 area %.

Q: And the Initial purity [1]?
A: Its Initial purity is 98.11 area %.

Q: And the HPLC purity after storage at 336 h ([1]; 40 °C/75% RH/open, 2 weeks)?
A: The HPLC purity after storage at 336 h was 98.2%.

Q: What about the HPLC purity after storage at 672 h ([1]; 40 °C/75% RH/open, 4 weeks) of the same molecule?
A: The HPLC purity after storage at 672 h was 98.1%.

Q: What about the “moisture adsorption value” value [2] of the same molecule?
A: The value was 1.6%.

Source: patent US20260297068A1, “SOLID FORM OF N-SUBSTITUTED PHENYLSULFONAMIDE COMPOUND” (SHANGHAI LEADO PHARMATECH CO. LTD., priority 2022, published 2026)
